Laboratory results taken from patent publication US12539292B2, “BRM targeting compounds and associated methods of use” (Arvinas Operations, Inc., priority 2018, dated 2026).
Where two headings read alike, the source gives them in different places.

Target: T1, BRM (Homo sapiens, UniProt P51531)
T1 construct: In-Cell Western Screen of BRM Degradation in SW1573 Cells; endogenous in cells; host or cells: SW1573
Assay: In-cell Western screen of BRM degradation in SW1573 cells (Dmax and DC50)
Assay type: cell-based
In short: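 After adhering overnight, cells received compound for 18-20 hours. They were then washed in cold DPBS, fixed with 4% PFA for 20 min and permeabilized for 30 min. Blocking and fluorescent secondary staining followed before imaging.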

[1] = BRM degradation, read-out: BRM DC50
[2] = SW1573, % degraded, when tested at the top concentration of between 0.3 and 10 μM, read-out: BRM Dmax (%)
[3] = BRM degradation, SW1573 cells, Table 2D
[4] = BRM degradation, SW1573 cells, Table 2D, read-out: *DC50
[5] = BRM degradation, SW1573 cells, Table 2D, read-out: **Dmax (%) (% degraded)

T1 sequence (P51531 whole entry): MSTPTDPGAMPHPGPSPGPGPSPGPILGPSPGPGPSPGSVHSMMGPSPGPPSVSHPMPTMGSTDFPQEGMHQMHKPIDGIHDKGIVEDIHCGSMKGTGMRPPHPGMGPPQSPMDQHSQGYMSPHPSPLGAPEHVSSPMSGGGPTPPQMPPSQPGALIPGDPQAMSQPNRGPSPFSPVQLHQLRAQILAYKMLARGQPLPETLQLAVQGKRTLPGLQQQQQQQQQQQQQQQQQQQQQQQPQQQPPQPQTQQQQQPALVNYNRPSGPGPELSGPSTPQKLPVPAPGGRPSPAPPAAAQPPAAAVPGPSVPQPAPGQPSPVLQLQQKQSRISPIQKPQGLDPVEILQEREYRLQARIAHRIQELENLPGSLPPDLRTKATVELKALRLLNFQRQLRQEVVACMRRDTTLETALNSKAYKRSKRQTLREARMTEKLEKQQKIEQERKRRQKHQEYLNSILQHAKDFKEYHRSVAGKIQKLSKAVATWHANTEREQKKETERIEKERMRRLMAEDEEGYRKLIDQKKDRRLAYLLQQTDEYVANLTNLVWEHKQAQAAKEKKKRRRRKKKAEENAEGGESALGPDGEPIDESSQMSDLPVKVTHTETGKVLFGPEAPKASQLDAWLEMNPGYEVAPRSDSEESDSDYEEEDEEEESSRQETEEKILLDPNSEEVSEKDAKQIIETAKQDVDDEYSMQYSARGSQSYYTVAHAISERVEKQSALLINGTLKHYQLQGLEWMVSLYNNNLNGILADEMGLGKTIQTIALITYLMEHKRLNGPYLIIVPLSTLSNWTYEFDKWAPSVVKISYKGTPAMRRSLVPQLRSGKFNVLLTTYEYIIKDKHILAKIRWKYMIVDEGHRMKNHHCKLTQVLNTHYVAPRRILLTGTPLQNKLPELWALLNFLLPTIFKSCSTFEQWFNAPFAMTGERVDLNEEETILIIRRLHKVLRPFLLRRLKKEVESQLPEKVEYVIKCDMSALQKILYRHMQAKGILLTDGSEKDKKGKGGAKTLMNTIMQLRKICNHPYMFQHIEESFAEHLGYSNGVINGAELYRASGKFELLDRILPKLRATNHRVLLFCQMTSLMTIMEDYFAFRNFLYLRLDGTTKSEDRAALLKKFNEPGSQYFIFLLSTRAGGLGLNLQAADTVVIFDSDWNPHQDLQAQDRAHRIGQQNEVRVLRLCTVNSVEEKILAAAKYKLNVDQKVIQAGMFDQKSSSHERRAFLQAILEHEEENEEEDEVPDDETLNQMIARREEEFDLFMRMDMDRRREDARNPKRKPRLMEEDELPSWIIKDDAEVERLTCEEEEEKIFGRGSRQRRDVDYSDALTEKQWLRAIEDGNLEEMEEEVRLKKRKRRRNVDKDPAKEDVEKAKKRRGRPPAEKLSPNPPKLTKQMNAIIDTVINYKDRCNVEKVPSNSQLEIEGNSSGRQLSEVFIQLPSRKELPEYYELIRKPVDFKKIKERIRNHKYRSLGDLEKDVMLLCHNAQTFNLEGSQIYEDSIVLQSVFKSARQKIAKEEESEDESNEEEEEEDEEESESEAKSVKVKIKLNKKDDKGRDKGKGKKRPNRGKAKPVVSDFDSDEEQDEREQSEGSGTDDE

Cc1ncsc1-c1ccc([C@H](CCC#N)NC(=O)[C@@H]2C[C@@H](O)CN2C(=O)[C@@H](c2cc(OCCN3CCC(O[C@H]4C[C@H](Oc5cc(N6C7CCC6CN(c6cc(-c8ccccc8O)nnc6N)C7)ccn5)C4)CC3)no2)C(C)C)cc1 [compound 533, (2S,4R)-1-((2R)-2-(3-(2-(4-((1r,3R)-3-((4-(3-(3-amino-6-(2-hydroxyphenyl)pyridazin-4-yl)-3,8-diazabicyclo[3.2.1]octan-8-yl)pyridin-2-yl)oxy)cyclobutoxy)piperidin-1-yl)ethoxy)isoxazol-5-yl)-3-methylbutanoyl)-N-((S)-3-cyano-1-(4-(4-methylthiazol-5-yl)phenyl)propyl)-4-hydroxypyrrolidine-2-carboxamide] showed a DC50 [1] of under 2.5 nM and a Dmax [2] of over 75%.

Cc1cc([C@@H](C(=O)N2C[C@H](O)C[C@H]2C(=O)N[C@@H](C)c2ccc(-c3scnc3C)cc2)[C@H](C)COCCn2cc(-c3cc(-c4ccccc4O)nnc3N)cn2)on1 [compound 534, (2S,4R)-1-((2S,3S)-4-(2-(4-(3-amino-6-(2-hydroxyphenyl)pyridazin-4-yl)-1 H-pyrazol-1-yl)ethoxy)-3-methyl-2-(3-methylisoxazol-5-yl)butanoyl)-4-hydroxy-N-((S)-1-(4-(4-methylthiazol-5-yl)phenyl)ethyl)pyrrolidine-2-carboxamide] gave a DC50 [1] of over 30 nM.

For Cc1ncsc1-c1ccc([C@H](C)NC(=O)[C@@H]2C[C@@H](O)CN2C(=O)[C@@H](c2cc(OCC[C@H]3CCN(C[C@H]4C[C@H](Oc5cc(N6C7CCC6CN(c6cc(-c8ccccc8O)nnc6N)C7)ccn5)C4)[C@H](C)C3)no2)C(C)C)cc1 [compound 535, (2S,4R)-1-((2R)-2-(3-(2-((2R,4S)-1-(((1r,3R)-3-((4-(3-(3-amino-6-(2-hydroxyphenyl)pyridazin-4-yl)-3,8-diazabicyclo[3.2.1]octan-8-yl)pyridin-2-yl)oxy)cyclobutyl)methyl)-2-methylpiperidin-4-yl)ethoxy)isoxazol-5-yl)-3-methylbutanoyl)-4-hydroxy-N-((S)-1-(4-(4-methylthiazol-5-yl)phenyl)ethyl)pyrrolidine-2-carboxamide], the DC50 [1] was under 2.5 nM and the Dmax [2] was over 75%.

Cc1ncsc1-c1ccc([C@H](C)NC(=O)[C@@H]2C[C@@H](O)CN2C(=O)[C@H](c2cc(OCCN3CCC(O[C@H]4C[C@H](Oc5cc(N6C7CCC6CN(c6cc(-c8ccccc8)nnc6N)C7)ccn5)C4)CC3)no2)C(C)C)cc1 [compound 536, (2S,4R)-1-((2S)-2-(3-(2-(4-((1r,3S)-3-((4-(3-(3-amino-6-phenylpyridazin-4-yl)-3,8-diazabicyclo[3.2.1]octan-8-yl)pyridin-2-yl)oxy)cyclobutoxy)piperidin-1-yl)ethoxy)isoxazol-5-yl)-3-methylbutanoyl)-4-hydroxy-N-((S)-1-(4-(4-methylthiazol-5-yl)phenyl)ethyl)pyrrolidine-2-carboxamide] showed a DC50 [3] of over 30 nM.

Molecule Cc1ncsc1-c1ccc([C@H](C)NC(=O)[C@@H]2C[C@@H](O)CN2C(=O)[C@@H](c2cc(OCCN3CCC(O[C@H]4C[C@H](Oc5cc(N6C7CCC6CN(c6cc(-c8ccccc8)nnc6N)C7)ccn5)C4)CC3)no2)C(C)C)cc1 [compound 537, (2S,4R)-1-((2R)-2-(3-(2-(4-((1r,3R)-3-((4-(3-(3-amino-6-phenylpyridazin-4-yl)-3,8-diazabicyclo[3.2.1]octan-8-yl)pyridin-2-yl)oxy)cyclobutoxy)piperidin-1-yl)ethoxy)isoxazol-5-yl)-3-methylbutanoyl)-4-hydroxy-N-((S)-1-(4-(4-methylthiazol-5-yl)phenyl)ethyl)pyrrolidine-2-carboxamide] has a DC50 [3] of over 30 nM.

Cc1cc([C@H](C(=O)N2C[C@H](O)C[C@H]2C(=O)N[C@@H](C)c2ccc(-c3scnc3C)cc2)[C@H](C)COCCn2cc(-c3cc(-c4ccccc4O)nnc3N)cn2)on1 [compound 538, (2S,4R)-1-((2R,3S)-4-(2-(4-(3-amino-6-(2-hydroxyphenyl)pyridazin-4-yl)-1H-pyrazol-1-yl)ethoxy)-3-methyl-2-(3-methylisoxazol-5-yl)butanoyl)-4-hydroxy-N-((S)-1-(4-(4-methylthiazol-5-yl)phenyl)ethyl)pyrrolidine-2-carboxamide] showed a DC50 [4] of over 30 nM.

Work on Cc1ncsc1-c1cc(F)c([C@H](C)NC(=O)[C@@H]2C[C@@H](O)CN2C(=O)[C@@H](c2cc(OCCN3CCC(O[C@H]4C[C@H](Oc5cc(N6C7CCC6CN(c6cc(-c8ccccc8O)nnc6N)C7)ccn5)C4)CC3)no2)C(C)C)cn1 [compound 539, (2S,4R)-1-((2R)-2-(3-(2-(4-((1r,3R)-3-((4-(3-(3-amino-6-(2-hydroxyphenyl)pyridazin-4-yl)-3,8-diazabicyclo[3.2.1]octan-8-yl)pyridin-2-yl)oxy)cyclobutoxy)piperidin-1-yl)ethoxy)isoxazol-5-yl)-3-methylbutanoyl)-N-((S)-1-(4-fluoro-6-(4-methylthiazol-5-yl)pyridin-3-yl)ethyl)-4-hydroxypyrrolidine-2-carboxamide] yielded a Dmax [5] of over 75% and a DC50 [4] of under 2.5 nM.

Molecule Cc1ncsc1-c1cc(F)c([C@H](C)NC(=O)[C@@H]2C[C@@H](O)CN2C(=O)[C@H](c2cc(OCCN3CCC(O[C@H]4C[C@H](Oc5cc(N6C7CCC6CN(c6cc(-c8ccccc8O)nnc6N)C7)ccn5)C4)CC3)no2)C(C)C)cn1 [compound 540, (2S,4R)-1-((2S)-2-(3-(2-(4-((1r,3S)-3-((4-(3-(3-amino-6-(2-hydroxyphenyl)pyridazin-4-yl)-3,8-diazabicyclo[3.2.1]octan-8-yl)pyridin-2-yl)oxy)cyclobutoxy)piperidin-1-yl)ethoxy)isoxazol-5-yl)-3-methylbutanoyl)-N-((S)-1-(4-fluoro-6-(4-methylthiazol-5-yl)pyridin-3-yl)ethyl)-4-hydroxypyrrolidine-2-carboxamide] has a DC50 [4] of over 30 nM.

Cc1ncsc1-c1cc(F)c([C@@H](C)NC(=O)[C@@H]2C[C@@H](O)CN2C(=O)[C@@H](c2cc(OCCN3CCC(O[C@H]4C[C@H](Oc5cc(N6C7CCC6CN(c6cc(-c8ccccc8O)nnc6N)C7)ccn5)C4)CC3)no2)C(C)C)cn1 [compound 541, (2S,4R)-1-((2R)-2-(3-(2-(4-((1r,3R)-3-((4-(3-(3-amino-6-(2-hydroxyphenyl)pyridazin-4-yl)-3,8-diazabicyclo[3.2.1]octan-8-yl)pyridin-2-yl)oxy)cyclobutoxy)piperidin-1-yl)ethoxy)isoxazol-5-yl)-3-methylbutanoyl)-N-((R)-1-(4-fluoro-6-(4-methylthiazol-5-yl)pyridin-3-yl)ethyl)-4-hydroxypyrrolidine-2-carboxamide] was tested, and the DC50 [4] was over 30 nM.

For Cc1ncsc1-c1cc(F)c([C@@H](C)NC(=O)[C@@H]2C[C@@H](O)CN2C(=O)[C@H](c2cc(OCCN3CCC(O[C@H]4C[C@H](Oc5cc(N6C7CCC6CN(c6cc(-c8ccccc8O)nnc6N)C7)ccn5)C4)CC3)no2)C(C)C)cn1 [compound 542, (2S,4R)-1-((2S)-2-(3-(2-(4-((1r,3S)-3-((4-(3-(3-amino-6-(2-hydroxyphenyl)pyridazin-4-yl)-3,8-diazabicyclo[3.2.1]octan-8-yl)pyridin-2-yl)oxy)cyclobutoxy)piperidin-1-yl)ethoxy)isoxazol-5-yl)-3-methylbutanoyl)-N-((R)-1-(4-fluoro-6-(4-methylthiazol-5-yl)pyridin-3-yl)ethyl)-4-hydroxypyrrolidine-2-carboxamide], the DC50 [4] was over 30 nM.

Work on Cc1ncsc1-c1ccc([C@H](C)NC(=O)[C@@H]2C[C@@H](O)CN2C(=O)[C@@H](c2cc(OCC[C@H]3CCN(C[C@H]4C[C@H](Oc5cc(N6C7CCC6CN(c6cc(-c8ccccc8O)nnc6N)C7)ccn5)C4)[C@@H](C)C3)no2)C(C)C)cc1 [compound 548, (2S,4R)-1-((2R)-2-(3-(2-((2S,4S)-1-(((1r,3S)-3-((4-(3-(3-amino-6-(2-hydroxyphenyl)pyridazin-4-yl)-3,8-diazabicyclo[3.2.1]octan-8-yl)pyridin-2-yl)oxy)cyclobutyl)methyl)-2-methylpiperidin-4-yl)ethoxy)isoxazol-5-yl)-3-methylbutanoyl)-4-hydroxy-N-((S)-1-(4-(4-methylthiazol-5-yl)phenyl)ethyl)pyrrolidine-2-carboxamide] yielded a Dmax [5] of over 75% and a DC50 [4] of under 2.5 nM.

Cc1ncsc1-c1ccc([C@H](C)NC(=O)[C@@H]2C[C@@H](O)CN2C(=O)[C@H](c2cc(N3CC(COCCOc4cc(N5C6CCC5CN(c5cc(-c7ccccc7O)nnc5N)C6)ccn4)C3)no2)C(C)C)cc1 [compound 549, (2S,4R)-1-((2S)-2-(3-(3-((2-((4-(3-(3-amino-6-(2-hydroxyphenyl)pyridazin-4-yl)-3,8-diazabicyclo[3.2.1]octan-8-yl)pyridin-2-yl)oxy)ethoxy)methyl)azetidin-1-yl)isoxazol-5-yl)-3-methylbutanoyl)-4-hydroxy-N-((S)-1-(4-(4-methylthiazol-5-yl)phenyl)ethyl)pyrrolidine-2-carboxamide] showed a DC50 [4] of over 30 nM.

With Cc1ncsc1-c1ccc([C@H](C)NC(=O)[C@@H]2C[C@@H](O)CN2C(=O)[C@@H](c2cc(N3CC(COCCOc4cc(N5C6CCC5CN(c5cc(-c7ccccc7O)nnc5N)C6)ccn4)C3)no2)C(C)C)cc1 [compound 550, (2S,4R)-1-((2R)-2-(3-(3-((2-((4-(3-(3-amino-6-(2-hydroxyphenyl)pyridazin-4-yl)-3,8-diazabicyclo[3.2.1]octan-8-yl)pyridin-2-yl)oxy)ethoxy)methyl)azetidin-1-yl)isoxazol-5-yl)-3-methylbutanoyl)-4-hydroxy-N-((S)-1-(4-(4-methylthiazol-5-yl)phenyl)ethyl)pyrrolidine-2-carboxamide] the Dmax [5] was over 75% and the DC50 [4] was under 2.5 nM.
